In patent publication US10183014B2, “Ocular formulations for drug-delivery and protection of the anterior segment of the eye” (PanOptica, Inc., priority 2014, dated 2019):

Assays:
[1] = Concentrations of Compound-I in ocular fluids and tissues, 0.4% cyclodextrin solutions, 24-day study; format: in vivo, Dutch-Belted rabbits; details: 0.4% cyclodextrin-based solutions, twice daily, day 24, 1 hour after first daily dose; for concentration at 1 h: Dutch-Belted, rabbit, topical, 0.4 % (4 mg/mL)
Procedure: The ocular solution of Compound-I comprising cyclodextrin was prepared and tested in different groups of animals.

[2] = target: EPHB-4 (Homo sapiens, UniProt P54760); experiment: In vitro inhibition of tyrosine kinases; format: biochemical; details: read-out: Mean % Inhibition at 1 μM Compound-I; 1 μM (568.9 ng/mL)
Sequence of EPHB-4 (P54760 16-987, species assumed): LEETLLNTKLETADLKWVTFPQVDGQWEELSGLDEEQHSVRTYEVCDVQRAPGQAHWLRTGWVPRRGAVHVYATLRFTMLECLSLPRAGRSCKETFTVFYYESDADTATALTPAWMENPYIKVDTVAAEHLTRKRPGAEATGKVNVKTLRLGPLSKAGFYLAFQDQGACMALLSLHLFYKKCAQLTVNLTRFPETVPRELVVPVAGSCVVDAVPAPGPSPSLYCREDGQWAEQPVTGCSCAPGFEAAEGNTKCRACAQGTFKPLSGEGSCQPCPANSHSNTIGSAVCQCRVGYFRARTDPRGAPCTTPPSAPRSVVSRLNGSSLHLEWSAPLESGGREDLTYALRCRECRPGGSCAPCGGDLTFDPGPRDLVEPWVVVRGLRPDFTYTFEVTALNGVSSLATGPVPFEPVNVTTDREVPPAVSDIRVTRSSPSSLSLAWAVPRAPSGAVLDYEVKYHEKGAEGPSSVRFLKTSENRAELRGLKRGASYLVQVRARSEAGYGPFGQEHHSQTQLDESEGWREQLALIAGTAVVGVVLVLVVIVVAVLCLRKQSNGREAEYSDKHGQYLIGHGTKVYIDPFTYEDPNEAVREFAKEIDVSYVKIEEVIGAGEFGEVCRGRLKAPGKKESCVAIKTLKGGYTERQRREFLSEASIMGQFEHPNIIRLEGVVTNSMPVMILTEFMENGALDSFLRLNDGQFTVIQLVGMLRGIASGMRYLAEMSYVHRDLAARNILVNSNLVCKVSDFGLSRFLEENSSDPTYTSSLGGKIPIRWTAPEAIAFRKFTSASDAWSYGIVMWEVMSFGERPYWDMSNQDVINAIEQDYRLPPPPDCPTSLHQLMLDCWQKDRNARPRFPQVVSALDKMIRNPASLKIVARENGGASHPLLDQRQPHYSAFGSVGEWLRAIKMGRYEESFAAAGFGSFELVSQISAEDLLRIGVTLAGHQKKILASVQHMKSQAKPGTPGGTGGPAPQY

[3] = PK with topical ocular Compound-I in sodium phosphate-based Gel Drop; format: in vivo, Dutch-Belted rabbits; details: Dutch-Belted, rabbit, Gel Drop 6 mg/ml, 3x per day, 4 days, 1 hour after last dose
Text: The Gel Drop of Compound-I was applied to eyes of Dutch-belted rabbits.

[4] = Ocular pharmacokinetics of formulations, Example 20-5; format: in vivo, Dutch Belted rabbits
Procedure: The study design (Table 19-1) consisted of forty-seven (47) Dutch Belted rabbits, each receiving a 30 μL bilateral topical ocular dose. Various suspension formulations of the present application were evaluated and compared against a cyclodextrin-based eye drops solution (Control Group 1, Table 19-1). Formula II or Compound-I was used in the test suspensions as well as the Eye Drops solution.
Ocular sampling occurred one hour following the first daily dose on Day 5 for all groups. Whole blood samples using K2EDTA as an anticoagulant were collected from all animals on Day 5, 1 hour post dose. The whole blood was placed on ice until samples were spun in a centrifuge to separate the plasma. Aqueous humor, conjunctiva, cornea, central retina, peripheral retina, central choroid, and peripheral choroid samples were collected following necropsy. Samples were then frozen at −70° C. or lower. For all Groups 1-15, plasma, central retina, central choroid, and cornea samples were assayed. For Group 5 only, samples were analyzed for Vitamin K3.
An analytical method for the analysis of Vitamin K3 was determined in plasma, central retina, central choroid, and cornea samples from Group 5 animals. A calibration curve prepared in control vitreous humor was used to determine the concentration of Vitamin K3. Internal standard (IS) responses were inconsistent for the central choroid and plasma samples. Thus, positive plasma results were likely due to the reduced IS response.

## Cl.NC(=O)c1c(OCc2c(F)cc(Br)cc2F)nsc1NC(=O)NCCCCN1CCCC1 [Compound-I, 3-[(4-bromo-2,6-difluorophenyl)methoxy]-5-[[[[4-(1-pyrrolidinyl)butyl]amino]carbonyl]amino]-4-isothiazolecarboxamide hydrochloride]
[1]
  Corneal concentration, range over solutions: 6.49 to 30 µM
[1]; aqueous humor, read-out: Aqueous humor concentration, range over solutions
  concentration at 1 h: 2 to 7 nM
[1]; central retina, read-out: Central retina concentration, range over solutions
  concentration at 1 h: 53.1 to 124 nM
[2]
  inhibition at 1 µM: 80%
[3]; aqueous humor (AH), read-out: Mean [AH]
  concentration at 1 h: 50.9 nM
[3]; plasma, read-out: [plasma]
  concentration at 1 h: 12.5 nM
[4]; Dutch Belted, rabbit, central choroid, topical, 1 mg/mL (30 μL per eye, bilateral), Group 7: 1 mg/mL suspension, 50 μm particles, TRIS 0.60%, glycerol 2%, HEC 0.2%, HPMC 0.08%, Vitamin K3 1 μM, pH 6, QD for 4 days, 1 hr post dose on Day 5, read-out: Central Choroid concentration
  concentration at 1 h: 59 nM
[4]; Dutch Belted, rabbit, central choroid, topical, 2 mg/mL (30 μL per eye, bilateral), Group 9: 2 mg/mL suspension, 50 μm particles, TRIS 0.60%, glycerol 2%, HEC 0.2%, HPMC 0.08%, Vitamin K3 1 μM, pH 6, QD for 4 days, 1 hr post dose on Day 5, read-out: Central Choroid concentration
  concentration at 1 h: 90.8 nM
[4]; Dutch Belted, rabbit, central choroid, topical, 4 mg/mL (30 μL per eye, bilateral), Group 5: 4 mg/mL suspension (Control), 30 μm particles (Table 19-1) / Native (≈50) (Table 19-2), TRIS 0.60%, glycerol 2%, HEC 0.2%, HPMC 0.08%, Vitamin K3 1 μM, pH 6, QD for 4 days, 1 hr post dose on Day 5, read-out: Central Choroid concentration
  concentration at 1 h: 129 nM
[4]; Dutch Belted, rabbit, central choroid, topical, 4 mg/mL, 30 μL per eye, pH 6, Group 1: 4 mg/mL Ophthalmic Solution, pH 6 (Control), QD for 4 days, 1 hr post dose on Day 5, read-out: Central Choroid concentration
  concentration at 1 h: 129 nM
[4]; Dutch Belted, rabbit, central choroid, topical, 4 mg/mL, 30 μL per eye, pH 6, read-out: Central Choroid concentration
  concentration at 1 h: 151 nM
[4]; Dutch Belted, rabbit, central choroid, topical, 30 μL per eye, Group 10: 2 mg/mL suspension, 50 μm particles, TRIS 0.60%, glycerol 2%, HEC 0.2%, HPMC 0.08%, Vitamin K3 1 μM, pH 6, BID for 4 days, 1 hr post dose on Day 5, read-out: Central Choroid concentration
  concentration at 1 h: 116 nM
[4]; Dutch Belted, rabbit, central choroid, topical, 30 μL per eye, Group 11: 6 mg/mL suspension, 50 μm particles, TRIS 0.60%, glycerol 2%, HEC 0.2%, HPMC 0.08%, Vitamin K3 1 μM, pH 6, QD for 4 days, 1 hr post dose on Day 5, read-out: Central Choroid concentration
  concentration at 1 h: 148 nM
[4]; Dutch Belted, rabbit, central choroid, topical, 30 μL per eye, Group 12: 10 mg/mL suspension, 50 μm particles, TRIS 0.60%, glycerol 2%, HEC 0.2%, HPMC 0.08%, Vitamin K3 1 μM, pH 6, QD for 4 days, 1 hr post dose on Day 5, read-out: Central Choroid concentration
  concentration at 1 h: 199 nM
[4]; Dutch Belted, rabbit, central retina, topical, 1 mg/mL (30 μL per eye, bilateral), Group 7: 1 mg/mL suspension, 50 μm particles, TRIS 0.60%, glycerol 2%, HEC 0.2%, HPMC 0.08%, Vitamin K3 1 μM, pH 6, QD for 4 days, 1 hr post dose on Day 5, read-out: Central Retina concentration
  concentration at 1 h: 25.6 nM
[4]; Dutch Belted, rabbit, central retina, topical, 2 mg/mL (30 μL per eye, bilateral), Group 9: 2 mg/mL suspension, 50 μm particles, TRIS 0.60%, glycerol 2%, HEC 0.2%, HPMC 0.08%, Vitamin K3 1 μM, pH 6, QD for 4 days, 1 hr post dose on Day 5, read-out: Central Retina concentration
  concentration at 1 h: 63.4 nM
[4]; Dutch Belted, rabbit, central retina, topical, 4 mg/mL (30 μL per eye, bilateral), Group 5: 4 mg/mL suspension (Control), 30 μm particles (Table 19-1) / Native (≈50) (Table 19-2), TRIS 0.60%, glycerol 2%, HEC 0.2%, HPMC 0.08%, Vitamin K3 1 μM, pH 6, QD for 4 days, 1 hr post dose on Day 5, read-out: Central Retina concentration
  concentration at 1 h: 44.2 nM
[4]; Dutch Belted, rabbit, central retina, topical, 4 mg/mL, 30 μL per eye, pH 6, Group 1: 4 mg/mL Ophthalmic Solution, pH 6 (Control), QD for 4 days, 1 hr post dose on Day 5, read-out: Central Retina concentration
  concentration at 1 h: 55.1 nM
[4]; Dutch Belted, rabbit, central retina, topical, 30 μL per eye, Group 11: 6 mg/mL suspension, 50 μm particles, TRIS 0.60%, glycerol 2%, HEC 0.2%, HPMC 0.08%, Vitamin K3 1 μM, pH 6, QD for 4 days, 1 hr post dose on Day 5, read-out: Central Retina concentration
  concentration at 1 h: 91.5 nM
[4]; Dutch Belted, rabbit, central retina, topical, 30 μL per eye, Group 12: 10 mg/mL suspension, 50 μm particles, TRIS 0.60%, glycerol 2%, HEC 0.2%, HPMC 0.08%, Vitamin K3 1 μM, pH 6, QD for 4 days, 1 hr post dose on Day 5, read-out: Central Retina concentration
  concentration at 1 h: 114 nM
[4]; Dutch Belted, rabbit, cornea, topical, 1 mg/mL (30 μL per eye, bilateral), Group 7: 1 mg/mL suspension, 50 μm particles, TRIS 0.60%, glycerol 2%, HEC 0.2%, HPMC 0.08%, Vitamin K3 1 μM, pH 6, QD for 4 days, 1 hr post dose on Day 5, read-out: Cornea concentration
  concentration at 1 h: 1240 nM
[4]; Dutch Belted, rabbit, cornea, topical, 2 mg/mL (30 μL per eye, bilateral), Group 9: 2 mg/mL suspension, 50 μm particles, TRIS 0.60%, glycerol 2%, HEC 0.2%, HPMC 0.08%, Vitamin K3 1 μM, pH 6, QD for 4 days, 1 hr post dose on Day 5, read-out: Cornea concentration
  concentration at 1 h: 2280 nM
[4]; Dutch Belted, rabbit, cornea, topical, 4 mg/mL (30 μL per eye, bilateral), Group 5: 4 mg/mL suspension (Control), 30 μm particles (Table 19-1) / Native (≈50) (Table 19-2), TRIS 0.60%, glycerol 2%, HEC 0.2%, HPMC 0.08%, Vitamin K3 1 μM, pH 6, QD for 4 days, 1 hr post dose on Day 5, read-out: Cornea concentration
  concentration at 1 h: 4470 nM
[4]; Dutch Belted, rabbit, cornea, topical, 4 mg/mL, 30 μL per eye, pH 6, Group 1: 4 mg/mL Ophthalmic Solution, pH 6 (Control), QD for 4 days, 1 hr post dose on Day 5, read-out: Cornea concentration
  concentration at 1 h: 14300 nM
[4]; Dutch Belted, rabbit, cornea, topical, 30 μL per eye, Group 10: 2 mg/mL suspension, 50 μm particles, TRIS 0.60%, glycerol 2%, HEC 0.2%, HPMC 0.08%, Vitamin K3 1 μM, pH 6, BID for 4 days, 1 hr post dose on Day 5, read-out: Cornea concentration
  concentration at 1 h: 5000 nM
[4]; Dutch Belted, rabbit, cornea, topical, 30 μL per eye, Group 11: 6 mg/mL suspension, 50 μm particles, TRIS 0.60%, glycerol 2%, HEC 0.2%, HPMC 0.08%, Vitamin K3 1 μM, pH 6, QD for 4 days, 1 hr post dose on Day 5, read-out: Cornea concentration
  concentration at 1 h: 7070 nM
[4]; Dutch Belted, rabbit, cornea, topical, 30 μL per eye, Group 12: 10 mg/mL suspension, 50 μm particles, TRIS 0.60%, glycerol 2%, HEC 0.2%, HPMC 0.08%, Vitamin K3 1 μM, pH 6, QD for 4 days, 1 hr post dose on Day 5, read-out: Cornea concentration
  concentration at 1 h: 24700 nM
[4]; Dutch Belted, rabbit, plasma, topical, 1 mg/mL (30 μL per eye, bilateral), Group 7: 1 mg/mL suspension, 50 μm particles, TRIS 0.60%, glycerol 2%, HEC 0.2%, HPMC 0.08%, Vitamin K3 1 μM, pH 6, QD for 4 days, 1 hr post dose on Day 5, read-out: Plasma concentration
  concentration at 1 h: 2.18 nM
[4]; Dutch Belted, rabbit, plasma, topical, 2 mg/mL (30 μL per eye, bilateral), Group 9: 2 mg/mL suspension, 50 μm particles, TRIS 0.60%, glycerol 2%, HEC 0.2%, HPMC 0.08%, Vitamin K3 1 μM, pH 6, QD for 4 days, 1 hr post dose on Day 5, read-out: Plasma concentration
  concentration at 1 h: 4.05 nM
[4]; Dutch Belted, rabbit, plasma, topical, 4 mg/mL (30 μL per eye, bilateral), Group 5: 4 mg/mL suspension (Control), 30 μm particles (Table 19-1) / Native (≈50) (Table 19-2), TRIS 0.60%, glycerol 2%, HEC 0.2%, HPMC 0.08%, Vitamin K3 1 μM, pH 6, QD for 4 days, 1 hr post dose on Day 5, read-out: Plasma concentration
  concentration at 1 h: 6.26 nM
[4]; Dutch Belted, rabbit, plasma, topical, 4 mg/mL, 30 μL per eye, pH 6, Group 1: 4 mg/mL Ophthalmic Solution, pH 6 (Control), QD for 4 days, 1 hr post dose on Day 5, read-out: Plasma concentration
  concentration at 1 h: 4.28 nM
[4]; Dutch Belted, rabbit, plasma, topical, 30 μL per eye, Group 11: 6 mg/mL suspension, 50 μm particles, TRIS 0.60%, glycerol 2%, HEC 0.2%, HPMC 0.08%, Vitamin K3 1 μM, pH 6, QD for 4 days, 1 hr post dose on Day 5, read-out: Plasma concentration
  concentration at 1 h: 7.72 nM
[4]; Dutch Belted, rabbit, plasma, topical, 30 μL per eye, Group 12: 10 mg/mL suspension, 50 μm particles, TRIS 0.60%, glycerol 2%, HEC 0.2%, HPMC 0.08%, Vitamin K3 1 μM, pH 6, QD for 4 days, 1 hr post dose on Day 5, read-out: Plasma concentration
  concentration at 1 h: 8.61 nM
[4]; Group 2: 4 mg/mL suspension, 30 μm particles, TRIS 0.60%, glycerol 2%, HEC 0.2%, HPMC 0.08%, Vitamin K3 1 μM, pH 6, QD for 4 days, 1 hr post dose on Day 5
  Plasma concentration: 4.64 nM
[4]; Group 2: 4 mg/mL suspension, 30 μm particles, TRIS 0.60%, glycerol 2%, HEC 0.2%, HPMC 0.08%, Vitamin K3 1 μM, pH 6, QD for 4 days, 1 hr post dose on Day 5, read-out: Central Choroid concentration
  concentration at 1 h: 135 nM
[4]; Group 2: 4 mg/mL suspension, 30 μm particles, TRIS 0.60%, glycerol 2%, HEC 0.2%, HPMC 0.08%, Vitamin K3 1 μM, pH 6, QD for 4 days, 1 hr post dose on Day 5, read-out: Central Retina concentration
  concentration at 1 h: 50.6 nM
[4]; Group 2: 4 mg/mL suspension, 30 μm particles, TRIS 0.60%, glycerol 2%, HEC 0.2%, HPMC 0.08%, Vitamin K3 1 μM, pH 6, QD for 4 days, 1 hr post dose on Day 5, read-out: Cornea concentration
  concentration at 1 h: 7480 nM
